These results are taken from the Deep4Chem optical property database.

The data set is described as follows: solvent given as SMILES.

`COc1cc(N(c2ccc(C=C(C#N)C#N)c(OC)c2)c2ccc(C=C(C#N)C#N)c(OC)c2)ccc1C=C(C#N)C#N` came in with a fluorescence lifetime (in C1COCCO1) of 0.65 ns; a fluorescence lifetime (in CC#N) of 0.14 ns; a fluorescence lifetime (in CC(C)=O) of 0.17 ns; a fluorescence lifetime (in CCOC(C)=O) of 0.32 ns; a fluorescence lifetime (in CN(C)C=O) of 0.06 ns; a fluorescence lifetime (in CO) of 0.12 ns. Besides, the fluorescence lifetime was found to be 0.03 ns (in Cc1ccccc1), 0.14 ns (in ClC(Cl)Cl) and 0.09 ns (in ClCCl).

Consider `c1ccc(-c2nnc(-c3cc(-c4nnc(-c5ccccc5)o4)c(-n4c5ccccc5c5ccccc54)cc3-n3c4ccccc4c4ccccc43)o2)cc1`, for which the fluorescence lifetime reads like this: (in Cc1ccccc1) 4.9 ns; (in O=P(c1ccccc1)(c1ccccc1)c1ccccc1Oc1ccccc1P(=O)(c1ccccc1)c1ccccc1) 8.6 ns.

Compound `Cc1nc(-c2cc(N)ccc2O)n2c1CCCC2` had a fluorescence lifetime (in ClCCl) of 0.834 ns.

As for `CCCCCCN1C(=O)C(c2ccc(-c3ccc(-n4c5ccccc5c5ccccc54)cc3)cc2)=C(c2ccc(-c3ccc(-n4c5ccccc5c5ccccc54)cc3)cc2)C1=O`, the fluorescence lifetime reads like this: (in ClC(Cl)Cl) 6.4 ns; (in c1ccc2c(c1)c1ccccc1n2-c1ccc(-c2ccc(-n3c4ccccc4c4ccccc43)cc2)cc1) 5.5 ns.

On to `Cc1cc2c(ccc3c[n+](C)c(C)cc32)c[n+]1C`, for which, under “in CC#N”, the fluorescence lifetime stood at 6.1 ns.

In turn, `c1ccc2c(c1)Nc1ccccc1B2c1c2ccccc2cc2ccccc12` returned a fluorescence lifetime (in ClCCl) of 16.8 ns.

Regarding `[NH3+]C(Cc1ccc(O)cc1)C(=O)[O-]` (stereo not given), for the setting “in O”, the fluorescence lifetime turned out to be 3.27 ns.

For `COCCOCCOCCOCC(COCCOCCOCCOC)Oc1cc(/C=C/c2ccc(/C=C(\C#N)c3ccc(C(F)(F)F)cc3)cc2)c(OC(COCCOCCOCCOC)COCCOCCOCCOC)cc1/C=C/c1ccc(/C=C(\C#N)c2ccc(C(F)(F)F)cc2)cc1`, the fluorescence lifetime (in ClCCl) worked out at 1.6 ns.

For the setting “in ClC(Cl)Cl”, `CCCCN1C(=O)c2cc(Br)c3c4c(Br)c(Br)c5c6c(cc(Br)c(c7c(Br)c(Br)c(c2c37)C1=O)c64)C(=O)N(CCCC)C5=O` came in with a fluorescence lifetime of 1.1 ns.

As to `CN(C)c1ccc(C2=Cc3ccc4ccccc4[n+]3[B-](F)(F)O2)cc1`, under “in ClC(Cl)Cl”, the fluorescence lifetime worked out at 2.8 ns.

As for `CCCCc1cc(-c2cccc(COC)c2)oc1-c1cccc(COC)c1`, the fluorescence lifetime (in ClC(Cl)Cl) was found to be 1.35 ns.

`Cc1ccc(-c2cc(-c3ccccc3Cl)c3c(N)nc(N4CCCC4)c(C#N)c3n2)cc1`: the fluorescence lifetime amounted to 11.3 ns (in CC#N); 11.1 ns (in CC(C)=O); 11.3 ns (in CC(C)O); 9.7 ns (in CO); 13.7 ns (in ClC(Cl)Cl); 13.7 ns (in ClCCl). Further, the fluorescence lifetime (in c1ccccc1) was 12.8 ns.

Where the note is “in C1CCOC1”, `FC(F)(F)C(F)(F)C(F)(F)C1=NC2=C(c3ccccc3)C=C3c4cc(-c5ccccc5)c5nc(C(F)(F)C(F)(F)C(F)(F)F)nc6c(-c7ccccc7)cc(c4c56)=C4C=C(c5ccccc5)C(=N1)C2C34` (stereo not given) came in with a fluorescence lifetime of 3.2 ns.

The compound `COC(=O)/C(C#N)=c1\s/c(=c2/s/c(=C(/C#N)C(=O)OC)c3cc(-c4ccccc4)sc23)c2sc(-c3ccccc3)cc12` showed a fluorescence lifetime (in Cc1ccccc1) of 2.82 ns.

`C[Si](C)(C)c1cccc2ccccc12` displayed a fluorescence lifetime (in C1CCCCC1) of 64 ns.

Turning to `O=C1/C(=C2\Sc3ccccc3C2=O)Sc2ccccc21`, the fluorescence lifetime reads like this: (in C1COCCO1) 12.4 ns; (in CN(C)C=O) 6.9 ns; (in CO) 0.68 ns; (in CS(C)=O) 0.17 ns; (in c1ccccc1) 12.2 ns.

For `Oc1ccccc1-c1nc2c(c3c1-c1ccccc1CC3)-c1ccccc1CC2`, the fluorescence lifetime (in ClCCl) was 2.75 ns.

For `COc1ccc(C#Cc2c3ccccc3c3n2[B-](F)(F)[N+]2=C(C)C=C(C)C2=C3)cc1`, the fluorescence lifetime reads like this: (in CCCCCC) 5.2 ns; (in CCCCCCCCO) 4.65 ns; (in CCOC(C)=O) 4.93 ns; (in CN(C)C=O) 4.41 ns.

Consider `Nc1cccnc1`, for which the fluorescence lifetime amounted to 26.5 ns (in C1CCCCC1); 4.6 ns (in CC#N); 6.5 ns (in CCO); 7.7 ns (in CCOCC); 21.1 ns (in O).

For the setting “in Cc1ccccc1”, `CC(C)c1cc(C(C)C)c(B2c3ccccc3Oc3cc(N4c5ccccc5C5(c6ccccc6-c6ccccc65)c5ccccc54)ccc32)c(C(C)C)c1` had a fluorescence lifetime of 28 ns.

The compound `C1C[C@H]2CC[C@@H]1N=N2` had a fluorescence lifetime (in CC#N) of 434 ns.

Compound `O=Cc1ccc2c(c1)c1ccccc1n2-c1ccc(-c2ccc(-n3c4ccccc4c4cc(C=O)ccc43)cc2)cc1` yielded a fluorescence lifetime (in ClCCl) of 1 ns.

On to `c1cc2cc(c1)c1ccc3ccc4ccc(cc4c3c1)c1ccc3ccc4ccc(cc4c3c1)c1cccc2c1`, for which the fluorescence lifetime (in Cc1ccccc1) was 4.7 ns.

Compound `Nc1ccc2c(-c3ccc(C(=O)CN4C(=O)CCC4=O)cc3C(=O)[O-])c3ccc(=[NH2+])c(S(=O)(=O)[O-])c-3oc2c1S(=O)(=O)[O-]` yielded a fluorescence lifetime (in O) of 4.1 ns.

`CN1c2ccccc2CCc2ccccc21`: the fluorescence lifetime reads like this: (in CC#N) 0.63 ns; (in CO) 0.81 ns.

As to `C=Cc1cc2ccc(OC(=O)c3ccccc3)cc2oc1=O`, the fluorescence lifetime (in CC#N) is 3.28 ns.

For the compound `CCCCCCOc1ccc(N(c2ccc(OCCCCCC)cc2)c2ccc(-c3sc(-c4ccc(N(c5ccc(OCCCCCC)cc5)c5ccc(OCCCCCC)cc5)cc4)c4nc(-c5ccc(C(=O)OC)cc5)c(-c5ccc(C(=O)OC)cc5)nc34)cc2)cc1`, the fluorescence lifetime runs as follows: (in CN(C)C=O) 0.61 ns; (in ClC(Cl)Cl) 0.58 ns.

Regarding `Cc1ccc(C2=C3C=C(I)C=[N+]3[B-](F)(F)n3c2cc(I)c3I)cc1`, the fluorescence lifetime runs as follows: (in C1CCCCC1) 0.327 ns; (in CC#N) 0.142 ns; (in CCO) 0.196 ns; (in CCOC(C)=O) 0.207 ns; (in CO) 0.179 ns; (in OCC(F)(F)F) 0.185 ns.

`COc1ccc(-c2ccc3c(c2)c2cc(-c4ccc(OC)cc4)ccc2n3-c2ccc(C(=O)c3ccc4sc5ccccc5c4c3)cc2)cc1` showed a fluorescence lifetime (in c1cc(-n2c3ccccc3c3ccccc32)cc(-n2c3ccccc3c3ccccc32)c1) of 7.8 ns.

As to `CC1(C)C(/C=C/C2=C(c3ccc(C(=O)O)cc3)C(=C/C=C3/N(CCCCS(=O)(=O)[O-])c4ccccc4C3(C)C)/CC2)=[N+](CCCCS(=O)(=O)[O-])c2ccccc21`, the fluorescence lifetime reads like this: (in CC(C)=O) 1.13 ns; (in CCO) 0.87 ns; (in CO) 0.83 ns; (in CS(C)=O) 1.11 ns; (in ClC(Cl)Cl) 1.25 ns; (in ClCCl) 1.17 ns. Moreover, the fluorescence lifetime (in O) was 0.36 ns.

For `CN(C)c1ccc(-c2c(/C=C3/C=Cc4ccccc4N3C)c(=O)c2=O)cc1`, the fluorescence lifetime reads like this: (in C1CCCCC1) 1.54 ns; (in Cc1ccccc1) 2.48 ns; (in ClCCl) 0.15 ns.

Where the note is “in ClCCl”, `Oc1ccc2ccccc2c1-c1nc2c(c3c1-c1ccccc1CC3)-c1ccccc1CC2` had a fluorescence lifetime of 0.97 ns.

For `CC1=C(c2ccc(N(C)C)cc2)C(C)=[N+]2C1=C(c1c(-c3ccccn3)nc3ccccn13)c1c(C)c(-c3ccc(N(C)C)cc3)c(C)n1[B-]2(F)F`, for the setting “in ClCCl”, the fluorescence lifetime was 0.2 ns.

`c1cc2c3c(c1)OCCCCCCCCOc1cccc(c1-c1c4ccccc4c-3c3ccccc13)OCCCCCCCCO2`: under “in C1CCCCC1”, the fluorescence lifetime was 8.01 ns.

As for `CCC1(CC)c2ccccc2-c2c1c1c(c3c2C(CC)(CC)c2cc(/C=C/c4cccs4)ccc2-3)C(CC)(CC)c2cc(/C=C/c3cccs3)ccc2-1`, under “in C1CCOC1”, the fluorescence lifetime is 1.5 ns.

In turn, `CC(C)(C)c1cc(C(C)(C)C)c(-c2nnc(-c3ccc(-n4c5ccccc5c5ccccc54)cc3)o2)c(C(C)(C)C)c1` showed a fluorescence lifetime (in CCO) of 2.25 ns.

For the setting “in Cc1ccccc1”, `c1cc2ccc3ccc4cc3c2cc1CCCCCCc1ccc2ccc3ccc-4cc3c2c1` returned a fluorescence lifetime of 8.7 ns.

For `CC1(C)C(=O)C=Cc2ccc(N3CCC3)cc21`, the fluorescence lifetime (in O) turned out to be 3.83 ns.

`COc1ccccc1-c1nc(-c2ccccc2)c2ccccn12` registered a fluorescence lifetime (in CC#N) of 7.5 ns.

For the compound `CCCCCCCCC1(CCCCCCCC)c2ccccc2-c2ccc(-c3nnc(-c4ccc(-n5c6ccc(C(C)(C)C)cc6c6cc(C(C)(C)C)ccc65)cc4)o3)cc21`, the fluorescence lifetime (in Cc1ccccc1) is 1.7 ns.

For the setting “in Cc1ccccc1”, `CC(C)c1cc(C(C)C)c(B2c3ccccc3Oc3cc(N4c5ccccc5C(C)(C)c5ccccc54)ccc32)c(C(C)C)c1` registered a fluorescence lifetime of 33 ns.

As for `Cc1ccc(N(c2ccc(C)cc2)c2ccc(-c3ccc(C=C(C#N)C#N)cc3)cc2)cc1`, under “in ClC(Cl)Cl”, the fluorescence lifetime was 1.06 ns.

`Nc1ccc2c(ccc3[n+]2[B-](F)(F)n2c-3cc3c4ccccc4c4ccccc4c32)c1` yielded a fluorescence lifetime (in ClCCl) of 2.96 ns.

For the compound `Nc1ccc2c3cccc4cccc(c5cccc1c52)c43`, the fluorescence lifetime came to 5.3 ns (in C1CCCCC1); 5.5 ns (in CC#N); 5.1 ns (in CCOC(C)=O); 5 ns (in CO); 5.6 ns (in CS(C)=O); 6.8 ns (in ClCCl).

Compound `O=C(O)CCCCCn1c2ccc(Br)cc2c(=O)c2cc(Br)ccc21` had a fluorescence lifetime (in O) of 6 ns.

`CCc1c(C(=O)OC)c(C(=O)OC)c2ccc(-c3ccccc3)nn12` returned a fluorescence lifetime (in CCCCCC) of 21.1 ns.

With `COC(=O)c1c2ccccc2nc2ccccc12`, the fluorescence lifetime reads like this: (in C1CCOC1) 1.1 ns; (in C1COCCO1) 0.9 ns; (in CC#N) 0.9 ns; (in CCCCCO) 0.7 ns; (in CCCCO) 0.8 ns; (in CCCO) 0.7 ns. Moreover, the fluorescence lifetime stood at 0.8 ns (in CCO); 1.2 ns (in CO); 1.3 ns (in COCCOC); 0.9 ns (in ClC(Cl)Cl); 1.3 ns (in ClCCl); 1.1 ns (in OCCO).

Under “in C1CCCCC1”, `CCCCCCCC[Si](C)(C)c1cccc2ccccc12` gave a fluorescence lifetime of 62 ns.

With `Cc1cccc(-c2c3ccccc3cc3ccccc23)n1`, the fluorescence lifetime (in ClCCl) was determined as 5.7 ns.

For the setting “in Cc1ccccc1”, `CCCCCCCCCCCCn1cccc1/C=C/c1ccc(/C=C/c2cccn2CCCCCCCCCCCC)cc1` yielded a fluorescence lifetime of 1.06 ns.

`O=c1c2cccc3cccc(c32)c2nc3ccccc3n12` gave a fluorescence lifetime (in ClCCl) of 11.1 ns.

For the setting “in CCO”, `Cc1cc2cc3ccccc3cc2cn1` displayed a fluorescence lifetime of 18.7 ns.
